The test system of the test is Plasmodium berghei. The experiment in a line: Luciferase/luciferin-expressing antifolate-resistant parasites were used to infect a culture of HepG2 cells that were pre-incubated with compounds. Infected hepatocytes emit light due to the luciferase reaction. Assay results are presented as the percent inhibition of light emission compared to control. […]. Type of test: functional. To be noted: sporozoite; for IC90: read-out: LUCIFERASE INFECTION ASSAY - IC90.

Setting [1] is: read-out: LUCIFERASE INFECTION ASSAY - IC50.

Results on 35 molecules are retold here after ChEMBL document CHEMBL4483862, “Open-source discovery of chemical leads for next-generation chemoprotective antimalarials” (2018).

For orientation: IC50 means the concentration needed to halve the response being measured. Broadly, the IC90 is the point of the concentration-response curve where the effect stands at 90%. Take `COc1cc(NS(=O)(=O)c2ccc(C)cc2)c(OC)cc1Cl`: the IC90 amounted to 3.66 µM. The IC50 under setting [1] came out at 2.01 µM.
Turning to `CCNC(=O)C1(C)CCCN1Cc1ccc(-c2ccccc2)cc1` (stereo not given), the IC90 is greater than 10.2 µM. For the setting “HEPG2TOX_HILL_SLOPE 7.75, HEPG2TOX_R_SQUARED 0.0398, PBLUC_HILL_SLOPE 14.9, PBLUC_R_SQUARED 0.606, read-out: LUCIFERASE INFECTION ASSAY - IC50”, the IC50 is 9.52 µM.
On to `CC(=O)Oc1ccc(-c2ccc(C(=O)OCC(=O)Nc3sccc3C(N)=O)cc2)cc1`, for which the IC90 is greater than 10 µM. The IC50 (HEPG2TOX_HILL_SLOPE 11.3, HEPG2TOX_R_SQUARED 0.976, PBLUC_HILL_SLOPE 2.77, PBLUC_R_SQUARED 0.661, read-out: LUCIFERASE INFECTION ASSAY - IC50) is 5.01 µM.
Consider `COc1cc(/C=C2\COC/C(=C\c3ccc(O)c(OC)c3)C2=O)ccc1O`, for which the IC90 is greater than 8.96 µM. The IC50 (HEPG2TOX_HILL_SLOPE 3.66, HEPG2TOX_R_SQUARED 0.976, PBLUC_HILL_SLOPE 1.71, PBLUC_R_SQUARED 0.466, read-out: LUCIFERASE INFECTION ASSAY - IC50) was greater than 8.96 µM.
For the molecule `CCC(C)(C)C1CCc2c(sc(NC(=O)CN3CCOCC3)c2C#N)C1` (stereo not given), the 90% effect concentration (IC90) stood at 8.57 µM. Besides, the IC50 (PBLUC_HILL_SLOPE 4.77, PBLUC_R_SQUARED 0.355, read-out: LUCIFERASE INFECTION ASSAY - IC50) was determined as 5.41 µM.
With `O=S(=O)(c1ccc(Cl)c(N=C2NN=C(c3c[nH]c4ccccc34)CS2)c1)N1CCOCC1`, the IC90 is greater than 10 µM. Further, the IC50 (FFLUC_HILL_SLOPE 3.06, FFLUC_R_SQUARED 0.687, HEPG2TOX_HILL_SLOPE 3.66, HEPG2TOX_R_SQUARED 0.952, PBLUC_HILL_SLOPE 1.64, PBLUC_R_SQUARED 0.734, read-out: LUCIFERASE INFECTION ASSAY - IC50) came to 3.83 µM.
As to `Clc1ccc(-c2cnc3sc(NCCc4ccncc4)nn23)cc1`, the IC90 is greater than 9.27 µM. The IC50 under setting [1] was greater than 9.27 µM.
In the case of `O=C(Nc1ncc(Cc2ccc(Br)cc2)s1)c1ccc2n[nH]nc2c1`, the IC90 stood at 1.27 µM. For the setting “HEPG2TOX_HILL_SLOPE 1.09, HEPG2TOX_R_SQUARED 0.989, PBLUC_HILL_SLOPE 1.74, PBLUC_R_SQUARED 0.819, read-out: LUCIFERASE INFECTION ASSAY - IC50”, the IC50 came out at 0.359 µM.
With `COc1cc(/C=C(\C#N)c2cccn2C)cc(OC)c1OC`, the IC90 is greater than 11.1 µM. Moreover, the IC50 (HEPG2TOX_HILL_SLOPE 8.79, HEPG2TOX_R_SQUARED 0.806, read-out: LUCIFERASE INFECTION ASSAY - IC50) was greater than 11.1 µM.
For `COC(=O)c1cc(CNCC(O)COc2ccc(C(C)(C)CC(C)(C)C)cc2)ccc1OC` (stereo not given), the IC90 turned out to be 4.63 µM. The IC50 (PBLUC_HILL_SLOPE 7.71, PBLUC_R_SQUARED 0.722, read-out: LUCIFERASE INFECTION ASSAY - IC50) was 3.48 µM.
As to `CCN(c1ccccc1)S(=O)(=O)c1cc(NC(=O)Nc2ccccc2C#N)ccc1Cl`, the IC90 is greater than 10 µM. Further, the IC50 (PBLUC_HILL_SLOPE 14.4, PBLUC_R_SQUARED 0.0813, read-out: LUCIFERASE INFECTION ASSAY - IC50) was greater than 10 µM.
As to `COc1ccccc1-c1cc2c(Nc3ccc4c(c3)OCCO4)nccc2n1C`, the IC90 turned out to be 4.78 µM. The IC50 under setting [1] worked out at 2.39 µM.
In the case of `Cc1ccc(-c2cnc3ccc(NC4CCOCC4)nn23)cc1`, the IC90 was found to be 10.4 µM. Moreover, the IC50 under setting [1] is 3.16 µM.
Consider `CC(C)(C)CN=C(C#N)C(C#N)/N=C/c1cccc(Cl)c1` (stereo not given), for which the IC90 is greater than 11 µM. In addition, the IC50 under setting [1] was greater than 11 µM.
In the case of `Cc1cc(C(=O)Cn2cnc3ccccc32)c(C)n1-c1ccccn1`, the IC90 is greater than 10 µM. Also, under “PBLUC_HILL_SLOPE 9.42, PBLUC_R_SQUARED 0.321, read-out: LUCIFERASE INFECTION ASSAY - IC50”, the IC50 was determined as 9.29 µM.
With `Cc1cccc(C)c1-n1c(=C(C#N)C#N)s/c(=C/c2ccc(Cl)c([N+](=O)[O-])c2)c1=O`, the IC90 was 9.8 µM. The concentration for half-maximal inhibition (IC50) (FFLUC_HILL_SLOPE 2.98, FFLUC_R_SQUARED 0.465, HEPG2TOX_HILL_SLOPE 7.11, HEPG2TOX_R_SQUARED 0.701, PBLUC_HILL_SLOPE 34, PBLUC_R_SQUARED 0.394, read-out: LUCIFERASE INFECTION ASSAY - IC50) worked out at 9.19 µM.
As for `Nc1ncc(-c2cccc(OC(F)(F)F)c2)cc1-c1cccnc1`, the IC90 is greater than 9.96 µM. The IC50 (HEPG2TOX_HILL_SLOPE 1.26, HEPG2TOX_R_SQUARED 0.924, PBLUC_HILL_SLOPE 2.1, PBLUC_R_SQUARED 0.295, read-out: LUCIFERASE INFECTION ASSAY - IC50) was 5.18 µM.
As for `N#Cc1ccc(NCCNc2nc3ccccc3s2)nc1`, the IC90 worked out at 4.32 µM. In addition, under “HEPG2TOX_HILL_SLOPE 2.81, HEPG2TOX_R_SQUARED 0.729, PBLUC_HILL_SLOPE 4.52, PBLUC_R_SQUARED 0.618, read-out: LUCIFERASE INFECTION ASSAY - IC50”, the IC50 was found to be 2.66 µM.
For `COc1ccc(-c2cnc3ccc(-c4cccc(C(F)(F)F)c4)nn23)cc1OC`, the IC90 came out at 9.93 µM. The IC50 (PBLUC_HILL_SLOPE 15.4, PBLUC_R_SQUARED 0.158, read-out: LUCIFERASE INFECTION ASSAY - IC50) amounted to 8.61 µM.
Take `O=C(Nc1cccc(C2NCC(c3ccccc3Cl)c3c2[nH]c2ccccc32)c1)c1ccc(Cl)cc1` (stereo not given): the IC90 was greater than 10 µM. The IC50 (FFLUC_HILL_SLOPE 18, FFLUC_R_SQUARED 0.972, PBLUC_HILL_SLOPE 3.03, PBLUC_R_SQUARED 0.515, read-out: LUCIFERASE INFECTION ASSAY - IC50) turned out to be 7.4 µM.
In the case of `O=C(Nc1cccnc1)N1CCc2nc(Nc3cc(Cl)cc(Cl)c3)ncc2C1`, the IC90 was greater than 7.95 µM. Also, the IC50 under setting [1] was greater than 7.95 µM.
As for `Clc1cccc(CNc2ncnc3sccc23)c1`, the IC90 stood at 9.83 µM. Further, the IC50 (HEPG2TOX_HILL_SLOPE 2.22, HEPG2TOX_R_SQUARED 0.937, PBLUC_HILL_SLOPE 2.28, PBLUC_R_SQUARED 0.461, read-out: LUCIFERASE INFECTION ASSAY - IC50) amounted to 3.76 µM.
For `O=C(Nc1ccc([N+](=O)[O-])cc1Br)C(Nc1ccc2c(c1)OCCO2)c1ccccc1` (stereo not given), the IC90 is greater than 10 µM. The IC50 (PBLUC_HILL_SLOPE 1.35, PBLUC_R_SQUARED 0.497, read-out: LUCIFERASE INFECTION ASSAY - IC50) was found to be 2.53 µM.
For `O=C(NCCCc1nc2ccccc2[nH]1)c1[nH]nc2ccccc12`, the IC90 was found to be 1.48 µM. In addition, the IC50 (HEPG2TOX_HILL_SLOPE 1.95, 1.49, HEPG2TOX_R_SQUARED 0.808, 0.974, PBLUC_HILL_SLOPE 11.3, 2.85, PBLUC_R_SQUARED 0.579, 0.589, read-out: LUCIFERASE INFECTION ASSAY - IC50) was found to be 0.947 µM.
As for `Oc1cccnc1NC(c1ccccc1F)c1ccc2cccnc2c1O` (stereo not given), the IC90 amounted to 9.5 µM. Moreover, the IC50 (FFLUC_HILL_SLOPE 2.5, FFLUC_R_SQUARED 0.451, HEPG2TOX_HILL_SLOPE 1.9, HEPG2TOX_R_SQUARED 0.963, PBLUC_HILL_SLOPE 13, PBLUC_R_SQUARED 0.418, read-out: LUCIFERASE INFECTION ASSAY - IC50) worked out at 8.03 µM.
For `Cc1ccc(Nc2nc(C[N+]3(Cc4csc(Nc5ccc(C)cc5)n4)CCN(Cc4ccc(C#N)cc4)CC3)cs2)cc1`, the IC90 is greater than 10 µM. Besides, where the note is “HEPG2TOX_HILL_SLOPE 1.4, HEPG2TOX_R_SQUARED 0.751, PBLUC_HILL_SLOPE 1.26, PBLUC_R_SQUARED 0.51, read-out: LUCIFERASE INFECTION ASSAY - IC50”, the IC50 stood at 1.97 µM.
On to `O=C(c1cnc2cc3c(cc2c1)OCCO3)c1cc(F)ccc1O`, for which the IC90 is 2.41 µM. Further, for the setting “HEPG2TOX_HILL_SLOPE 1.24, HEPG2TOX_R_SQUARED 0.963, PBLUC_HILL_SLOPE 1.6, PBLUC_R_SQUARED 0.807, read-out: LUCIFERASE INFECTION ASSAY - IC50”, the IC50 turned out to be 0.612 µM.
On to `CC1Cc2nc(N)nc(N)c2CC1C` (stereo not given), for which the IC90 was greater than 17.2 µM. Besides, under setting [1], the IC50 was greater than 17.2 µM.
With `Cc1csc(=O)n1CC(=O)Nc1ccccc1C(=O)NCc1ccco1`, the IC90 is greater than 10 µM. For the same molecule, the IC50 under setting [1] was greater than 10 µM.
In the case of `Cc1c(C(=O)Nc2nc3c(C)cccc3s2)[nH]c2c1C(=O)CCC2`, the IC90 is greater than 10 µM. Further, the IC50 (PBLUC_HILL_SLOPE 2.07, PBLUC_R_SQUARED 0.0587, read-out: LUCIFERASE INFECTION ASSAY - IC50) is 5.05 µM.
In the case of `CC(C)C(Nc1ccc(C(F)(F)F)cc1Cl)C(=O)Nc1ccc(-n2cncn2)nc1` (stereo not given), the IC90 is greater than 10 µM. The IC50 (HEPG2TOX_HILL_SLOPE 1.66, HEPG2TOX_R_SQUARED 0.94, PBLUC_HILL_SLOPE 0.872, PBLUC_R_SQUARED 0.779, read-out: LUCIFERASE INFECTION ASSAY - IC50) turned out to be 2.14 µM.
For `Cc1cc(C)c(N2C(=O)C=CC2=O)c(C)c1`, the IC90 came to 13.1 µM. In addition, the IC50 (FFLUC_HILL_SLOPE 3.47, FFLUC_R_SQUARED 0.6, PBLUC_HILL_SLOPE 4.24, PBLUC_R_SQUARED 0.739, read-out: LUCIFERASE INFECTION ASSAY - IC50) was 7.79 µM.
On to `Cc1cc(-c2ccc(Cl)cc2)nc2c1c(C)nn2CCO`, for which the IC90 is greater than 10 µM. Under setting [1], the IC50 came to 4.08 µM.
For the molecule `Cc1ccccc1NC(=O)Nc1nc(C(N)COCc2ccccc2)cs1` (stereo not given), the concentration for an effect of 90% (IC90) was greater than 8.63 µM. Where the note is “HEPG2TOX_HILL_SLOPE 7.21, HEPG2TOX_R_SQUARED 0.623, PBLUC_HILL_SLOPE 21.4, PBLUC_R_SQUARED 0.0439, read-out: LUCIFERASE INFECTION ASSAY - IC50”, the IC50 was found to be 7.8 µM.
With `Cc1nn(-c2cccc(C(F)(F)F)c2)c2c1C=Nc1cc(S(=O)(=O)N3CCOCC3)ccc1O2`, the IC90 was greater than 10 µM. The half-inhibitory concentration (IC50) (PBLUC_HILL_SLOPE 4.52, PBLUC_R_SQUARED 0.617, read-out: LUCIFERASE INFECTION ASSAY - IC50) was 8.73 µM.
